Results as given in patent publication US20250170240A1, “MODIFIED INVARIANT NATURAL KILLER T CELLS EXPRESSING A CHIMERIC ANTIGEN RECEPTOR AND USES THEREOF” (Tinkeso Therapeutics, Inc., priority 2022, published 2025).

Columns and labels:
CD1d^+ target cells [1] = assay: Luciferase-based killing assay, glycolipid- or DMSO-pulsed CD1d+ target cells; assay type: cell-based, human; conditions: effector thawed iNKT47 CD19 CAR (allo), FIG. 13B
Procedure: Luciferase-Based Killing Assay: αGalCer or DMSO pulsed target cells were prepared by incubating target cells (2×10^5/mL) at 37° C., 5% CO2 with αGalCer (200 ng/ml) or DMSO (1:500 of 10% stock) overnight and used for cytotoxicity assays after spinning to remove medium containing αGalCer or DMSO. Luciferase-expressing target cells (1×104 in 50 μL per well) were incubated with 50 μL of INKT cells per well at different effector T cell: target cell (E/T) ratios in quadruplicate in a 96-well flat-bottom white polystyrene microplate (Corning, Cat No. 3912). A spontaneous or maximal killing was set up by adding 50 μL per well of culture medium or 1% Triton X-100 instead of INKT cells, respectively. After a standard 4 h or 16 h (as indicated) incubation at 37° C., 10 μL of D-luciferin (1:10 of 30 mg/ml stock) or 50 μL (1:50 of 30 mg/mL) (Caliper Life Sciences, Cat No. XR-1001) was added to each well. Luciferase activity was measured using a Synergy 2 microplate reader (BioTek). Percent specific lysis was calculated as follows: […]

CD1d^+ target cells [2] = assay: Cytokine release assay (IFN-γ ELISA), glycolipid-pulsed CD1d+ target cells; assay type: cell-based, human; conditions: pulsed MV4:11-hfflucN; 3-month cultured INKT47 CD19 CAR (allo) and iNKT48 CD19 CAR/GFP (allo); FIG. 13C
Procedure: Cytokine Release Assays: Cytokine release assays were performed by co-culturing 1-2×10^5 T cells with 2×10^4 target cells per well in duplicate in 96-well flat-bottom plates. After 24 h, supernatants were assayed using a LEGEND MAX Human IFN-γ ELISA kit (BioLegend, Cat No. 430107).

CCCCCCCCCCCCCC[C@@H](O)[C@@H](O)[C@H](CO[C@H]1O[C@H](CO)[C@H](O)[C@H](O)[C@H]1O)NC(=O)CCCCCCCCCCc1ccc(F)cc1 [7DW8-5]
potency relative to αGalCer in sensitizing CD1d+ target cells (CD1d^+ target cells [1]; Molm13): at least 16 fold
potency relative to αGalCer in sensitizing CD1d+ target cells (CD1d^+ target cells [1]; THP1): ≥ 64 fold
potency in stimulating iNKT cells to produce IFN-γ (CD1d^+ target cells [2]): more potent than αGalCer
